According to patent US9809583B2 (priority 2014, dated 2017):

Tests used:
[1] = target: T1, androgen receptor (hAR) (Homo sapiens (Human), UniProt P10275); assay: biochemical; assay type: binding; conditions: 1 nM [3H]MIB, hAR-transfected COS-7 cells, 2 hours; read-out: IC50 [nM] (mean ± SE)
Description: In order to examine binding ability of the agonists of the present invention to androgen receptors, the following in-vitro experiment was performed. African green monkey kidney fibroblast-like cell line, COS-7 (ATCC, #CRL-1651) was seeded in a 48-well plate at a density of 2.5×10^4 cells/well, and cultured for 24 hours. Then, a plasmid hAR-mixed medium was added thereto. […] Thereafter, the cells were lysed and the amount of [3H]MIB bound to the intracellular androgen receptors was measured using a radiation dosimeter.

[2] = target: T1, androgen receptor (hAR); assay: Test of transcriptional activity (hAR / ARE-Luc dual-luciferase assay in CHO cells); assay type: cell-based; conditions: EC50 [nM] (mean ± SE), CHO cells with hAR and ARE-Luc, 24 hours; 10 nM DHT = 100%
Procedure, shortened: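 CHO cells cultured 24 h, then transfected with hAR and ARE-Luc plasmids. Transfected cells treated with 0.1˜10,000 nM compound for 24 h; transcriptional activity read by dual-luciferase reporter.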

T1 sequence (P10275 whole entry): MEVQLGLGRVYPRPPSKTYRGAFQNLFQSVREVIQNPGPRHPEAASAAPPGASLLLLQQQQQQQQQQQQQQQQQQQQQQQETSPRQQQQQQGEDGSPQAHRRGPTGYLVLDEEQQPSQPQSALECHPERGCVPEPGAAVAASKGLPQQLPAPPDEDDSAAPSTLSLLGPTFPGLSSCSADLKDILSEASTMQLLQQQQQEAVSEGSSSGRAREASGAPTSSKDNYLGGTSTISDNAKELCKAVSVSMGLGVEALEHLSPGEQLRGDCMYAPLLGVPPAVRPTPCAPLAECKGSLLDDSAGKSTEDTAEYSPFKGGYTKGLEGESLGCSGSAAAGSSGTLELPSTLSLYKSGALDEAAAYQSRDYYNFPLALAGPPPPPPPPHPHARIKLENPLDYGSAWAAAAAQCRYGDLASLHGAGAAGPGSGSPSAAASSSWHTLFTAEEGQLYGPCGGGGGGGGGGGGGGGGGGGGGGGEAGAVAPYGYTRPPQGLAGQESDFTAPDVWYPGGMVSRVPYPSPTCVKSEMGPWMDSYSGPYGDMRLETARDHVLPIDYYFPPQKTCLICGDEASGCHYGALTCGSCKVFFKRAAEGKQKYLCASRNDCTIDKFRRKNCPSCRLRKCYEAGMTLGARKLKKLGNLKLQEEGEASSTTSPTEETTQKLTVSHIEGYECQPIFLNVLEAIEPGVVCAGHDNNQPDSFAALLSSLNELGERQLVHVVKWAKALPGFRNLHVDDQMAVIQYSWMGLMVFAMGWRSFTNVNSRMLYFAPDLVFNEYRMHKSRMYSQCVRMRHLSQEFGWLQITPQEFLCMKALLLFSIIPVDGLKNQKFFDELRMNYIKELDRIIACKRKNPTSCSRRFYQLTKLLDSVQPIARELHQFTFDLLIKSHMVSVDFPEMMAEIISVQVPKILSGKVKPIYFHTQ

| Structure (SMILES) | IC50 [1] [nM] | EC50 [2] [nM] |
| --- | --- | --- |
| N#Cc1ccc(COC[C@@H]2CN(c3ccc(C#N)c(C(F)(F)F)c3)[C@@H](C(F)(F)F)O2)cc1 [Example 2, 4-((2R,5S)-5-(((4-cyanobenzyl)oxy)methyl)-2-(trifluoromethyl)oxazolidin-3-yl)-2-(trifluoromethyl)benzonitrile] | 23.9 | 133 |
| N#Cc1ccc(OC[C@@H]2CN(c3ccc(C#N)c(C(F)(F)F)c3)[C@H](C(F)(F)F)O2)cc1 [Example 6, 4-((2S,5S)-5-((4-cyanophenoxy)methyl)-2-(trifluoromethyl)oxazolidin-3-yl)-2-(trifluoromethyl)benzonitrile] | 11 | 4.1 |
| COC(=O)c1ccc(OC[C@@H]2CN(c3ccc(C#N)c(C(F)(F)F)c3)[C@@H](C(F)(F)F)O2)cc1 [Example 7, methyl 4-(((2R,5S)-3-(4-cyano-3-(trifluoromethyl)phenyl)-2-(trifluoromethyl)oxazolidin-5-yl)methoxy)benzoate] | 15.7 | 13.1 |
| N#Cc1ccc(N2C[C@@H](COc3ccc([N+](=O)[O-])cc3)O[C@@H]2C(F)(F)F)cc1C(F)(F)F [Example 8, 4-((2R,5S)-5-((4-nitrophenoxy)methyl)-2-(trifluoromethyl)oxazolidin-3-yl)-2-(trifluoromethyl)benzonitrile] | 13.7 | 20 |
| N#Cc1ccc(N2C[C@@H](COc3ccc(F)c(F)c3)O[C@@H]2C(F)(F)F)cc1C(F)(F)F [Example 10, 4-((2R,5S)-5-((3,4-difluorophenoxy)methyl)-2-(trifluoromethyl)oxazolidin-3-yl)-2-(trifluoromethyl)benzonitrile] | 6.3 | 11.1 |
| N#Cc1ccc(OC[C@@H]2CN(c3ccc(C#N)c(C(F)(F)F)c3)[C@@H](C(F)(F)F)O2)c(F)c1 [Example 11, 4-((2R,5S)-5-((4-cyano-2-fluorophenoxy)methyl)-2-(trifluoromethyl)oxazolidin-3-yl)-2-(trifluoromethyl)benzonitrile] | 10.5 | 4.5 |
| N#Cc1ccc(N2C[C@@H](COc3cc(F)c(F)cc3F)O[C@@H]2C(F)(F)F)cc1C(F)(F)F [Example 13, 2-(trifluoromethyl)-4-((2R,5S)-2-(trifluoromethyl)-5-((2,4,5-trifluorophenoxy)methyl)oxazolidin-3-yl)benzonitrile] | 14.5 | 9.9 |
| N#Cc1ccc(N2C[C@@H](CSc3ccc(Cl)cc3)O[C@@H]2C(F)(F)F)cc1C(F)(F)F [Example 26, 4-((2R,5S)-5-(((4-chlorophenyl)thio)methyl)-2-(trifluoromethyl)oxazolidin-3-yl)-2-(trifluoromethyl)benzonitrile] | 43.6 | 8.6 |
| N#Cc1ccc(SC[C@@H]2CN(c3ccc(C#N)c(C(F)(F)F)c3)[C@@H](C(F)(F)F)O2)cc1 [Example 29, 4-((2R,5S)-5-(((4-cyanophenyl)thio)methyl)-2-(trifluoromethyl)oxazolidin-3-yl)-2-(trifluoromethyl)benzonitrile] | 14.1 | 7.5 |
| N#Cc1ccc(N2C[C@@H](COc3ccc([N+](=O)[O-])c(F)c3)O[C@@H]2C(F)(F)F)cc1C(F)(F)F [Example 31] | 14.1 | 17.7 |
| CNC(=O)c1ccc(OC[C@@H]2CN(c3ccc(C#N)c(C(F)(F)F)c3)[C@@H](C(F)(F)F)O2)cc1 [Example 32, 4-(((2R,5S)-3-(4-cyano-3-(trifluoromethyl)phenyl)-2-(trifluoromethyl)oxazolidin-5-yl)methoxy)-N-methylbenzamide] | 32.7 | – |
| N#Cc1ccc(N2C[C@@H](COc3ccc([N+](=O)[O-])cc3)O[C@H]2C(F)(F)F)cc1C(F)(F)F [Example 35, 4-((2S,5S)-5-((4-nitrophenoxy)methyl)-2-(trifluoromethyl)oxazolidin-3-yl)-2-(trifluoromethyl)benzonitrile] | 185 | – |
